Measured values from publication PMC3597463 (Analytical chemistry, 2013).
Read-outs that look alike come from different tables or passages of the source.

Columns and labels:
[1] = target: Torpedo marmorata nicotinic acetylcholine receptor (nAChR); experiment: nAChR/microsphere-based inhibition assay; type: binding; details: for IC50 expressed as level in shellfish meat: assuming 100% recoveries; for Interference with the Luminex nAChR-based assay: restated in discussion, concentration not given there
nAChR [2] = details: chemiluminescence assay; cited from earlier work
[3] = type: physicochemical; details: for % Recovery (toxin detected after storage versus freshly analyzed samples): 7 ng/ml, 4 weeks
mice [4] = details: cited from earlier work; for LD50: fed to fasted mice; for oral LD50: mice
nAChR [5] = details: fluorescence polarization assay; cited from earlier work
[6] = system: Lymnaea stagnalis acetylcholine binding protein (Ls-AChBP); experiment: Ls-AChBP/microsphere-based inhibition assay; details: buffer
mice [7] = details: fed to fasted mice, from reported LD50
nAChR [8] = details: cited from earlier work
[9] = target: Torpedo marmorata nicotinic acetylcholine receptor (Torpedo marmorata) (UniProt P02711); experiment: […]
[10] = target: Acetylcholine binding protein from Lymnaea stagnalis (Lymnaea stagnalis, UniProt P58154 20-229); experiment: […]
Acetylcholine binding protein from Lymnaea stagnalis, sequence (P58154 20-229): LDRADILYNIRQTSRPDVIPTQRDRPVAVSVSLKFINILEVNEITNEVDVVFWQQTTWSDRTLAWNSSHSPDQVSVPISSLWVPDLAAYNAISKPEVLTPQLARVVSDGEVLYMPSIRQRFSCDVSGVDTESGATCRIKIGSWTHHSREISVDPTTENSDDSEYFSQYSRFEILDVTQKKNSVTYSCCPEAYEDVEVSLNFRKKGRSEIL

Torpedo marmorata nicotinic acetylcholine receptor (Torpedo marmorata), sequence (P02711 whole entry, looked up): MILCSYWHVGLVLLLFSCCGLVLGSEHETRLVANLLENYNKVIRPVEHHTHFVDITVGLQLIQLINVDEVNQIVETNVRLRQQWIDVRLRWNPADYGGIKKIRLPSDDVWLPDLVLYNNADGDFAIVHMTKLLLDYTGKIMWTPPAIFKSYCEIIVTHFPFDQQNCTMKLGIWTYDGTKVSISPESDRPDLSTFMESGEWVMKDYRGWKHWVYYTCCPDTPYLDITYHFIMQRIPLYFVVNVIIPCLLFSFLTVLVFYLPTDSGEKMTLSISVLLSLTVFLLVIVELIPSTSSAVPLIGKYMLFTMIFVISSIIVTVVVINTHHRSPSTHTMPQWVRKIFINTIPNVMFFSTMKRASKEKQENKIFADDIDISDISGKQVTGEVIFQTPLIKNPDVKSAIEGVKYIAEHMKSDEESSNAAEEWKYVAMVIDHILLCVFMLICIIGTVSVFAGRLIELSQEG

C=C1CCCC2=NCC(C)C(C)CC23CCC(C2C=C(C)C(=O)O2)=C(C)C3/C=C(/C)C(O)CC2CCC3(CCC4(OC(CCC4(C)O)C1)O3)O2 (centres unmarked) [13-desmethyl spirolide C]
IC50 [1]: 10 nM
IC20 ([1]; buffer): 0.2 ± 0.04 ng/mL
IC50 ([1]; buffer): 7.4 ± 0.7 ng/mL
IC50 ([1]; buffer (PBS-BT/20% EtOH), n = 8): 10.8 ± 0.9 nM
IC20 ([1]; clam extract): 0.3 ± 0.01 ng/mL
IC50 ([1]; clam extract): 10.3 ± 1.4 ng/mL
IC80 ([1]; clam extract): 160 ± 6 ng/mL
IC50 expressed as level in shellfish meat ([1]; clam extract): 411.6 ± 54.8 Wg/kg
IC50 ([1]; clam extract, n = 2): 14.9 ± 1.9 nM
IC20 ([1]; mussel extract): 0.4 ± 0.1 ng/mL
IC50 ([1]; mussel extract): 11.3 ± 1.1 ng/mL
IC80 ([1]; mussel extract): 160 ± 8 ng/mL
IC50 expressed as level in shellfish meat ([1]; mussel extract): 451.3 ± 42.4 Wg/kg
IC50 ([1]; mussel extract, n = 6): 16.3 ± 1.5 nM
Detection efficiency of 13-desmethyl spirolide C relative to gymnodimine ([1]; nAChR assay, buffer): 24 times
IC20 ([1]; read-out: IC20 (nM), lower end of dynamic range, buffer): 0.4 ± 0.07 nM
IC20 ([1]; read-out: IC20 (nM), lower end of dynamic range, clam extract): 0.5 ± 0.01 nM
IC20 ([1]; read-out: IC20 (nM), lower end of dynamic range, mussel extract): 0.6 ± 0.2 nM
IC20 ([1]; read-out: IC20 (nM), lower end of dynamic range, scallop extract): 0.5 ± 0.2 nM
IC80 ([1]; read-out: IC80 (nM), upper end of dynamic range, clam extract): 231 ± 23 nM
IC80 ([1]; read-out: IC80 (nM), upper end of dynamic range, mussel extract): 232 ± 11 nM
IC80 ([1]; read-out: IC80 (nM), upper end of dynamic range, scallop extract): 201 ± 9 nM
IC20 ([1]; scallop extract): 0.4 ± 0.2 ng/mL
IC50 ([1]; scallop extract): 8.6 ± 1.5 ng/mL
IC80 ([1]; scallop extract): 139 ± 6.5 ng/mL
IC50 expressed as level in shellfish meat ([1]; scallop extract): 344.2 ± 60.3 Wg/kg
IC50 ([1]; scallop extract, n = 5): 12.4 ± 2.2 nM
IC50 (nAChR [2]): 35 nM
% Recovery (toxin detected after storage versus freshly analyzed samples) ([3]; buffer (PBS-BT/20% EtOH), 4–8 °C): 109 ± 6%
% Recovery (toxin detected after storage versus freshly analyzed samples) ([3]; buffer (PBS-BT/20% EtOH), −20 °C): 98.1 ± 6.3%
% Recovery (toxin detected after storage versus freshly analyzed samples) ([3]; mussel extract, 4–8 °C): 135 ± 23%
% Recovery (toxin detected after storage versus freshly analyzed samples) ([3]; mussel extract, −20 °C): 121 ± 16%
% Recovery (toxin detected after storage versus freshly analyzed samples) ([3]; scallop extract, 4–8 °C): 92.0 ± 9.2%
% Recovery (toxin detected after storage versus freshly analyzed samples) ([3]; scallop extract, −20 °C): 85.5 ± 5.5%
% of toxin recovered after storage in mussel homogenate ([3]; spiked mussel homogenate, two weeks, −20 °C): 105.7 ± 5.3%
LD50 (mice [4]): 0.5 mg/kg
oral LD50 (mice [4]; administered with food): 500 Wg/kg
oral LD50 (mice [4]; by gavage): 160 Wg/kg
IC50 (nAChR [5]): 100 nM

CC1=C[C@@H](C2=C(C)[C@@H]3/C=C(\C)[C@@H](O)CC[C@@H]4C[C@@H](C)[C@@H](O4)/C(C)=C/CCC4=NCCC[C@@]43CC2)OC1=O [gymnodimine, Gymnodimine]
Assay efficiency for gymnodimine relative to 13-desmethyl spirolide C [6]: 14 fold
LD50 (mice [4]): > 7.5 mg/kg
Times less toxic than 13-desmethyl spirolide C (mice [7]): > 15 times

C=CCC(=C)/C=C/[C@@](C)(O)[C@H]1O[C@@H]2C[C@@H]3O[C@@H]4C[C@@H]5O[C@@H]6C[C@@H]7O[C@@H]8C[C@@H]9O[C@@H]%10C[C@@H]%11O[C@](C)(CCOS(=O)(=O)O)[C@@H](OS(=O)(=O)O)C[C@H]%11O[C@H]%10C[C@H]9O[C@H]8CC[C@@]7(C)O[C@@]6(C)CC[C@H](C)[C@H]5O[C@H]4C[C@@]3(C)O[C@H]2CC1=C [yessotoxin]
Interference with nAChR based assays (nAChR [8]; previous studies): not shown any interferences
Interference with the nAChR-based assay (maximum and minimum binding signals) ([1]; 5 μM): no effects on maximum and minimum binding signals
Interference with the Luminex nAChR-based assay [1]: do not interfere

C=C1[C@@H](O)[C@@H]2O[C@]3(CC[C@H](/C=C/[C@@H](C)[C@@H]4CC(C)=C[C@@]5(O[C@H](C[C@@](C)(O)C(=O)O)CC[C@H]5O)O4)O3)CC[C@H]2O[C@@H]1[C@@H](O)C[C@H](C)[C@H]1O[C@@]2(CCCCO2)CC[C@H]1C [okadaic acid]
Interference with nAChR based assays (nAChR [8]; previous studies): not shown any interferences
Interference with the nAChR-based assay (maximum and minimum binding signals) ([1]; 10 μM): no effects on maximum and minimum binding signals
Interference with the Luminex nAChR-based assay [1]: do not interfere

C/C(=C/C=C/[C@@H](C)C(=O)O)[C@H]1CN[C@H](C(=O)O)[C@H]1CC(=O)O [domoic acid]
Interference with the nAChR-based assay (maximum and minimum binding signals) ([1]; 10 μM): no effects on maximum and minimum binding signals
Interference with the Luminex nAChR-based assay [1]: do not interfere

azaspiracid-2
Interference with nAChR based assays (nAChR [8]; previous studies): not shown any interferences

brevetoxin-2
Interference with nAChR based assays (nAChR [8]): not shown any interferences

Biotin-α-bungarotoxin (peptide)
maximum binding signal to background ratio [9]: 500

20-methyl spirolide G
Cross-reactivity (IC50 of 13-desmethyl spirolide C / IC50 of cyclic imine x 100) ([1]; nAChR assay, buffer): 95%
oral LD50 (mice [4]; administered with food): 500 Wg/kg
oral LD50 (mice [4]; by gavage): 160 Wg/kg

azaspirazid-1
Interference with the nAChR-based assay (maximum and minimum binding signals) ([1]; 1 μM): no effects on maximum and minimum binding signals
Interference with the Luminex nAChR-based assay [1]: do not interfere

B1: Biotin-α-bungarotoxin (peptide)
chain: IVCHTTATSPISAVTCPPGENLCYRKMWCDAFCSSRGKVVELGCAATCPSKKPYEEVTCCSTDKCNPHPKQRPG
maximum binding signal to background ratio [10]: ~2000
